Results: patent US12098145B2 (Libra Therapeutics, Inc., priority 2022, dated 2024)

Target: T1, TRPML1 (Homo sapiens, UniProt Q9GZU1)
T1 construct: expressed in transfected cells; host or cells: HEK T-REx cells stably expressing GCaMP6f and TRPML1
Experiment: Cellular TRPML1 assay (FLIPR, GCaMP6f calcium read-out)
Assay type: cell-based
Conditions: HEKT-REx/GCaMP6f/TRPML1 cells, FLIPR TETRA, kinetic response over 300 seconds; for EC50: read-out: TRPML1 FLIPR pEC50 (converted)
How it was run: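 Read-out is GCaMP6f fluorescence over 300 s after compound addition in Ca2+-free Tyrode's buffer, final DMSO 0.5%, on FLIPR Tetra. Cells are HEK T-REx stably co-expressing the indicator and TRPML1, plated 24 h earlier in Optimem + 0.5% FBS and pre-incubated ~10 min at room temperature.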

T1 sequence (Q9GZU1 whole entry): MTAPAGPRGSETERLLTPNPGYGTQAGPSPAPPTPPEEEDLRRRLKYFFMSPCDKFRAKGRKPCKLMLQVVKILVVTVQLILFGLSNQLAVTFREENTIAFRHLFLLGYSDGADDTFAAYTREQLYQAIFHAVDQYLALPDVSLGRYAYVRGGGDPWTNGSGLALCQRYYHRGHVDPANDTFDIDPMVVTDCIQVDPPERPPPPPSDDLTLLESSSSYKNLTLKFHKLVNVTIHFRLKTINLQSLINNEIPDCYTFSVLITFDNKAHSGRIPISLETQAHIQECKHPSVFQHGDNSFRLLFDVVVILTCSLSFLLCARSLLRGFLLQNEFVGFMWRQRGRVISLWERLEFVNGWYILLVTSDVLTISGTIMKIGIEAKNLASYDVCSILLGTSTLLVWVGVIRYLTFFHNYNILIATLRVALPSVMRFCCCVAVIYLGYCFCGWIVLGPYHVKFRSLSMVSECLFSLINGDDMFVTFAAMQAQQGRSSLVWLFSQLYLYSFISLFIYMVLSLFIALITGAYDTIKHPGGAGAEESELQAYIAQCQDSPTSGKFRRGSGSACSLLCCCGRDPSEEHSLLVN

Row | EC50 | TRPML1 FLIPR pEC50 | SMILES
1 | 1000 to 10000 nM |  | COCCN(CC(C)C)c1nc(C(=O)Nc2cc(F)c(O[C@@H]3C[C@@H]4C[C@@H]4C3)c(F)c2)c(CC(F)(F)F)o1 [Example 147, N-(4-(cis-bicyclo[3.1.0]hexan-3-yloxy)-3,5-difluorophenyl)-2-(isobutyl(2-methoxyethyl)amino)-5-(2,2,2-trifluoroethyl)oxazole-4-carboxamide]
2 | 10000 to 100000 nM |  | CCCN(CCOC)c1nc(C(=O)Nc2cc(F)c(O[C@@H]3C[C@@H]4C[C@@H]4C3)c(F)c2)c(CC(F)(F)F)o1 [Example 152, N-(4-(cis-bicyclo[3.1.0]hexan-3-yloxy)-3,5-difluorophenyl)-2-((2-methoxyethyl)(propyl)amino)-5-(2,2,2-trifluoroethyl)oxazole-4-carboxamide]
3 | 10 to 1000 nM |  | CCC1(OC)CN(c2nc(C(=O)Nc3cc(F)c(O[C@@H]4C[C@@H]5C[C@@H]5C4)c(F)c3)c(CC(F)(F)F)o2)C1 [Example 167, N-(4-(cis-bicyclo[3.1.0]hexan-3-yloxy)-3,5-difluorophenyl)-2-(3-ethyl-3-methoxyazetidin-1-yl)-5-(2,2,2-trifluoroethyl)oxazole-4-carboxamide]
4 | 10 to 1000 nM |  | COCC1(COC)CN(c2nc(C(=O)Nc3cc(F)c(O[C@@H]4C[C@@H]5C[C@@H]5C4)c(F)c3)c(CC(F)(F)F)o2)C1 [Example 168, N-(4-(cis-bicyclo[3.1.0]hexan-3-yloxy)-3,5-difluorophenyl)-2-(3,3-bis(methoxymethyl)azetidin-1-yl)-5-(2,2,2-trifluoroethyl)oxazole-4-carboxamide]
5 | 10 to 1000 nM |  | O=C(Nc1cc(F)c(OC2CC3C[C@@H]3C2)c(F)c1)c1nc(N2CC3CC2C3)oc1CC(F)(F)F (stereo partly drawn) [Example 175, 2-(2-azabicyclo[2.1.1]hexan-2-yl)-N-(4-(cis-bicyclo[3.1.0]hexan-3-yloxy)-3,5-difluorophenyl)-5-(2,2,2-trifluoroethyl)oxazole-4-carboxamide]
6 | 10000 to 100000 nM |  | CC1CN(c2nc(C(=O)Nc3cc(F)c(OC4CC5C[C@H]5C4)c(F)c3)c(CC(F)(F)F)o2)CC(C)O1 (stereo partly drawn) [Example 176, N-(4-(cis-bicyclo[3.1.0]hexan-3-yloxy)-3,5-difluorophenyl)-2-(2,6-dimethylmorpholino)-5-(2,2,2-trifluoroethyl)oxazole-4-carboxamide]
7 | 1000 to 10000 nM |  | O=C(Nc1cc(F)c(O[C@@H]2C[C@@H]3C[C@@H]3C2)c(F)c1)c1nc(N2CCOCC2)oc1CC(F)(F)F [Example 181, N-(4-(cis-bicyclo[3.1.0]hexan-3-yloxy)-3,5-difluorophenyl)-2-morpholino-5-(2,2,2-trifluoroethyl)oxazole-4-carboxamide]
8 | 1000 to 10000 nM |  | O=C(Nc1cc(F)c(OC2CC3C[C@@H]3C2)c(F)c1)c1nc(N2CC3CC2CO3)oc1CC(F)(F)F (stereo partly drawn) [Example 182, 2-(2-oxa-5-azabicyclo[2.2.1]heptan-5-yl)-N-(4-(cis-bicyclo[3.1.0]hexan-3-yloxy)-3,5-difluorophenyl)-5-(2,2,2-trifluoroethyl)oxazole-4-carboxamide]
9 | 1000 to 10000 nM |  | CC1(C)CN(c2nc(C(=O)Nc3cc(F)c(O[C@@H]4C[C@@H]5C[C@@H]5C4)c(F)c3)c(CC(F)(F)F)o2)CCO1 [Example 184, N-(4-(cis-bicyclo[3.1.0]hexan-3-yloxy)-3,5-difluorophenyl)-2-(2,2-dimethylmorpholino)-5-(2,2,2-trifluoroethyl)oxazole-4-carboxamide]

The next lines start with the molecule.

Row | SMILES | EC50 | TRPML1 FLIPR pEC50
10 | Cc1oc(N2CCCC2C)nc1C(=O)Nc1ccc(N2CCCCC2)c(F)c1 (stereo not shown) [Example 119, N-(3-fluoro-4-(piperidin-1-yl)phenyl)-5-methyl-2-(2-methylpyrrolidin-1-yl)oxazole-4-carboxamide] | 1000 to 10000 nM | 
11 | Cc1oc(N2CCC(F)(F)C2)nc1C(=O)Nc1ccc(N2CCCCC2)c(F)c1 [Example 121, 2-(3,3-difluoropyrrolidin-1-yl)-N-(3-fluoro-4-(piperidin-1-yl)phenyl)-5-methyloxazole-4-carboxamide] |  | C (C = 5.0-4.0)
12 | Cc1oc(N2CCC(C)C2)nc1C(=O)Nc1ccc(N2CCCCC2)c(F)c1 (stereo not shown) [Example 122, N-(3-fluoro-4-(piperidin-1-yl)phenyl)-5-methyl-2-(3-methylpyrrolidin-1-yl)oxazole-4-carboxamide] | 10000 to 100000 nM | 
13 | Cc1oc(N2C[C@H]3CCO[C@H]3C2)nc1C(=O)Nc1ccc(N2CCCCC2)c(F)c1 [Example 123, N-(3-fluoro-4-(piperidin-1-yl)phenyl)-2-((3aR,6aR)-hexahydro-5H-furo[2,3-c]pyrrol-5-yl)-5-methyloxazole-4-carboxamide] | 1000 to 10000 nM | 
14 | CCC1(CC)CN(c2nc(C(=O)Nc3cc(F)c(OC4CCCC5(CC5)C4)c(F)c3)c(CC(F)(F)F)o2)C1 (stereo not shown) [Example 132, 2-(3,3-diethylazetidin-1-yl)-N-(3,5-difluoro-4-(spiro[2.5]octan-5-yloxy)phenyl)-5-(2,2,2-trifluoroethyl)oxazole-4-carboxamide] | 1000 to 10000 nM | 
15 | COC1(C)CN(c2nc(C(=O)Nc3ccc(OC4CC5CCC(C4)O5)c(F)c3)c(CC(F)(F)F)o2)C1 (stereo not shown) [Example 133, N-(4-((8-oxabicyclo[3.2.1]octan-3-yl)oxy)-3-fluorophenyl)-2-(3-methoxy-3-methylazetidin-1-yl)-5-(2,2,2-trifluoroethyl)oxazole-4-carboxamide] | 1000 to 10000 nM | 
16 | CCC1(CC)CN(c2nc(C(=O)Nc3cc(F)c(OC4CCCC5(CCC5)C4)c(F)c3)c(CC(F)(F)F)o2)C1 (stereo not shown) [Example 134, 2-(3,3-diethylazetidin-1-yl)-N-(3,5-difluoro-4-(spiro[3.5]nonan-6-yloxy)phenyl)-5-(2,2,2-trifluoroethyl)oxazole-4-carboxamide] | 1000 to 10000 nM | 
17 | O=C(Nc1cc(F)c(OCC23CC(C2)C3)c(F)c1)c1nc(N2CCCC2)oc1CC(F)(F)F [Example 136, N-(4-(bicyclo[1.1.1]pentan-1-ylmethoxy)-3,5-difluorophenyl)-2-(pyrrolidin-1-yl)-5-(2,2,2-trifluoroethyl)oxazole-4-carboxamide] | 10 to 1000 nM | 
18 | CCC1(CC)CN(c2nc(C(=O)Nc3cc(F)c(OC4CCCOC4)c(F)c3)c(CC(F)(F)F)o2)C1 (stereo not shown) [Example 137, 2-(3,3-diethylazetidin-1-yl)-N-(3,5-difluoro-4-((tetrahydro-2H-pyran-3-yl)oxy)phenyl)-5-(2,2,2-trifluoroethyl)oxazole-4-carboxamide] | 10 to 1000 nM | 
19 | O=C(Nc1cc(F)c(OC2CCC3(CC3)C2)c(F)c1)c1nc(N2CCCC2)oc1CC(F)(F)F (stereo not shown) [Example 138, N-(3,5-difluoro-4-(spiro[2.4]heptan-5-yloxy)phenyl)-2-(pyrrolidin-1-yl)-5-(2,2,2-trifluoroethyl)oxazole-4-carboxamide] | 10 to 1000 nM | 
20 | O=C(Nc1cc(F)c(OC2CC3(CCC3)C2)c(F)c1)c1nc(N2CCCC2)oc1CC(F)(F)F [Example 139, N-(3,5-difluoro-4-(spiro[3.3]heptan-2-yloxy)phenyl)-2-(pyrrolidin-1-yl)-5-(2,2,2-trifluoroethyl)oxazole-4-carboxamide] | 10000 to 100000 nM | 
21 | O=C(Nc1cc(F)c(OC2CC3CCC2C3)c(F)c1)c1nc(N2CCCC2)oc1CC(F)(F)F (stereo not shown) [Example 141, N-(4-(bicyclo[2.2.1]heptan-2-yloxy)-3,5-difluorophenyl)-2-(pyrrolidin-1-yl)-5-(2,2,2-trifluoroethyl)oxazole-4-carboxamide] | 10 to 1000 nM | 
22 | COC1(C)CN(c2nc(C(=O)Nc3ccc(O[C@@H]4C[C@@H]5C[C@@H]5C4)c(C#N)c3)c(CC(F)(F)F)o2)C1 [Example 146, N-(4-(cis-bicyclo[3.1.0]hexan-3-yloxy)-3-cyanophenyl)-2-(3-methoxy-3-methylazetidin-1-yl)-5-(2,2,2-trifluoroethyl)oxazole-4-carboxamide] | 1000 to 10000 nM | 
23 | CCC1(OC)CN(c2nc(C(=O)Nc3cc(F)c(OC4C[C@@H]5CC[C@H]4C5)c(F)c3)c(CC(F)(F)F)o2)C1 (stereo partly drawn) [Example 151, N-(4-(((1S,4R)-bicyclo[2.2.1]heptan-2-yl)oxy)-3,5-difluorophenyl)-2-(3-ethyl-3-methoxyazetidin-1-yl)-5-(2,2,2-trifluoroethyl)oxazole-4-carboxamide] | 10 to 1000 nM | 
24 | O=C(Nc1ccc(O[C@@H]2CC3C[C@@H]3C2)c(F)c1)c1nc(N2CC3OCOC3C2)oc1CC(F)(F)F (stereo partly drawn) [Example 153, N-(4-(cis-bicyclo[3.1.0]hexan-3-yloxy)-3-fluorophenyl)-2-(tetrahydro-5H-[1,3]dioxolo[4,5-c]pyrrol-5-yl)-5-(2,2,2-trifluoroethyl)oxazole-4-carboxamide] | 10 to 1000 nM | 
25 | CCC1(CC)CN(c2nc(C(=O)Nc3ccc(OC4CCCOC4)c(F)c3)c(CC(F)(F)F)o2)C1 (stereo not shown) [Example 158, 2-(3,3-diethylazetidin-1-yl)-N-(3-fluoro-4-((tetrahydro-2H-pyran-3-yl)oxy)phenyl)-5-(2,2,2-trifluoroethyl)oxazole-4-carboxamide] | 10 to 1000 nM | 
26 | CCC1(OC)CN(c2nc(C(=O)Nc3cc(F)c(OC4CCCOC4)c(F)c3)c(CC(F)(F)F)o2)C1 (stereo not shown) [Example 160, N-(3,5-difluoro-4-((tetrahydro-2H-pyran-3-yl)oxy)phenyl)-2-(3-ethyl-3-methoxyazetidin-1-yl)-5-(2,2,2-trifluoroethyl)oxazole-4-carboxamide] | 10 to 1000 nM | 
27 | O=C(Nc1cc(F)c(O[C@@H]2C[C@@H]3C[C@@H]3C2)c(F)c1)c1nc(N2Cc3conc3C2)oc1CC(F)(F)F [Example 166, N-(4-(cis-bicyclo[3.1.0]hexan-3-yloxy)-3,5-difluorophenyl)-2-(4H-pyrrolo[3,4-c]isoxazol-5(6H)-yl)-5-(2,2,2-trifluoroethyl)oxazole-4-carboxamide] | 10 to 1000 nM | 
28 | O=C(Nc1cc(F)c(OC2CC3CC(C3)C2)c(F)c1)c1nc(N2CCCC2)oc1CC(F)(F)F (stereo not shown) [Example 169, N-(4-(bicyclo[3.1.1]heptan-3-yloxy)-3,5-difluorophenyl)-2-(pyrrolidin-1-yl)-5-(2,2,2-trifluoroethyl)oxazole-4-carboxamide] | 10 to 1000 nM | 
